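Tested at 5 concentrations; 48 h exposure; 96-well plates; endpoints linearly interpolated, else capped at highest concentration. GI50: concentration for 50% inhibition of growth. TGI: concentration producing complete growth inhibition.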
Assays:
Assay in all cases: growth of human tumour cells (NCI), 48 h
[1] = tested on: HT29 colon
[2] = tested on: CAKI-1 renal
[3] = tested on: HL-60(TB) leukemia
[4] = tested on: OVCAR-3 ovarian
[5] = tested on: SNB-75 CNS
[6] = tested on: SK-MEL-2 melanoma
[7] = tested on: HCC-2998 colon
[8] = tested on: NCI-H460 lung
[9] = tested on: MDA-MB-231 breast
[10] = tested on: NCI/ADR-RES ovarian

Structure (SMILES)	TGI [1] [µM]	TGI [2] [µM]	TGI [3] [µM]	TGI [4] [µM]	TGI [5] [µM]	TGI [6] [µM]	TGI [7] [µM]	TGI [8] [µM]	GI50 [1] [µM]	GI50 [9] [µM]	TGI [9] [µM]	GI50 [3] [µM]	GI50 [10] [µM]	TGI [10] [µM]	GI50 [5] [µM]	GI50 [6] [µM]	GI50 [8] [µM]	GI50 [2] [µM]	GI50 [4] [µM]
COC(=O)C1Cc2c(n(C)c3ccccc23)C(c2ccccc2)N1 (centres undefined)	> 100	> 100	48	> 100	> 100	> 100	> 100	> 100											
C=CC[P@@]1(=O)O[C@H](c2ccccc2)C(C)N1C(C)C (some centres undefined)	> 100		> 100	> 100	> 100		> 100	> 100											
O=[N+]([O-])c1ccc(OCCNc2cccc3ccccc23)cc1	> 100	> 100		> 100	> 100	> 100	> 100	> 100											
O=C1C(c2ccc(Cl)cc2)=[N+]([O-])c2ccccc21	43.6		24	26.8	42.2	77.3	> 100	37.6											
COC(=O)C/C(C)=C/[C@@H](O)[C@H]1O[C@@H]2CC/C(Cl)=C/C/C=C(/C)[C@H](OC(C)=O)CC(=O)O[C@@H]1C2	> 25		11.9		6.14	9.62		13.8	1.26	4.07	11.8	1.8	9.91	> 25	1.16	0.581	0.367		
N#Cc1c2ccccc2c2nnc3cc(C(F)(F)F)ccc3n12	> 100	> 100	> 100	> 100	> 100			> 100	58			58.6			> 100		37.1	38.6	79.9
O=[N+]([O-])c1ccc2c(c1)OCCOCCOc1ccc([N+](=O)[O-])cc1OCCOCCO2	> 100	> 100	> 100	> 100	> 100	> 100	> 100	> 100											
CC1=CCP(C(F)(F)F)P(C(F)(F)F)C1 (centres undefined)	> 100	> 100	> 100	> 100	> 100		> 100	> 100											
N#C[C@]12CC3(CC[C@H]1CC1(C2)OCCO1)OCCO3		> 100	> 100	> 100	> 100	> 100	> 100	> 100											
Cc1cc(N(CCC#N)CCC#N)ccc1N=Nc1ccccc1[N+](=O)[O-]	> 100	> 100	> 100	> 100	> 100	> 100	> 100												
CCCCCCC(O)C/C=C/CCCCCC/C(C(=O)OC)=C(/O)C(=O)OCC (centres undefined)	> 100	> 100	> 100	> 100	> 100	> 100	> 100	> 100											
Cc1ccc(C)c(NC(=O)CC2C(=O)Nc3ccccc3S2(=O)=O)c1 (centres undefined)	> 100	> 100	> 100	> 100	45.7	> 100	> 100	> 100											

Reference: PubChem BioAssay (NCI)
